Laboratory results reported in ChEMBL document CHEMBL4014333, “Discovery of Small Molecules for Repressing Cap-Independent Translation of Human Vascular Endothelial Growth Factor (hVEGF) as Novel Antitumor Agents” (J Med Chem, 2017).
Active and inactive are the calls of the source.

What was measured:
Homo sapiens [1] = species: Homo sapiens; assay: Destabilization of human wild type internal ribosome entry site A RNA G-quadruplex assessed as melting temperature at 5 uM by CD spectra method (reference value: 80.9 +/- 0.8 degreeC)
Homo sapiens [2] = species: Homo sapiens; assay: Destabilization of human 5'-UGAAGAGUGUGAGUAGUA-3' RNA expressed in MCF7 cells assessed as down regulation of VEGF-A translation at up to 0.5 uM after 24 hrs by dual-luciferase reporter gene assay; type: cell-based
Homo sapiens [3] = species: Homo sapiens; assay: Destabilization of human wild type internal ribosome entry site A RNA G-quadruplex expressed in MCF7 cells assessed as down regulation of VEGF-A translation at 1.5 uM after 24 hrs by dual-luciferase reporter gene assay relative to control; type: cell-based
Homo sapiens [4] = species: Homo sapiens; assay: Destabilization of human 5'-UGAAGAGUGUGAGUAGUA-3' RNA expressed in MCF7 cells assessed as down regulation of VEGF-A translation at up to 1.5 uM after 24 hrs by dual-luciferase reporter gene assay; type: cell-based
MCF7 = assay: Antitumor activity against human MCF7 cells xenografted in nude Balb/c mouse assessed as tumor weight at 1 mg/kg, ip qd for 20 days; type: functional
Homo sapiens [5] = species: Homo sapiens; assay: Binding affinity to biotin-labeled human wild type internal ribosome entry site A RNA G-quadruplex by SPR analysis
[6] = Binding affinity to biotin-labeled DNA hairpin (unknown origin) by SPR analysis
Homo sapiens [7] = species: Homo sapiens; assay: Binding affinity to biotin-labeled human 5'-UGAUGAGUGUGAGGAGGA-3' RNA G-quadruplex by SPR analysis
Homo sapiens [8] = species: Homo sapiens; assay: Destabilization of human wild type internal ribosome entry site A RNA G-quadruplex expressed in MCF7 cells assessed as down regulation of VEGF-A translation up to 0.5 uM after 24 hrs by dual-luciferase reporter gene assay relative to control; type: cell-based

Structure (SMILES): NCCOc1cc(C(=O)Nc2cc(OCCN)c3ccccc3n2)cc(C(=O)Nc2cc(OCCN)c3ccccc3n2)c1
- Tm (Homo sapiens [1]): > 76 °C
- Activity (Homo sapiens [2]): inactive
- Activity (Homo sapiens [3]): inactive

Structure (SMILES): NC(=O)c1ccccc1NC(=O)c1ccccc1[N+](=O)[O-]
- Activity (Homo sapiens [4]): inactive

Structure (SMILES): COc1cccc2c1C(=O)c1c(O)c3c(c(O)c1C2=O)C[C@@](O)(C(=O)CO)C[C@@H]3O[C@H]1C[C@H](N)[C@H](O)[C@H](C)O1 [DOXORUBICIN]
- Activity (MCF7): 0.14 g

Structure (SMILES): C[n+]1c2ccccc2c(NCCN2CCOCC2)c2oc3ccc(OCC[N+](C)(C)C)cc3c21
- Activity (Homo sapiens [5]): Active
- Activity [6]: Active
- Activity (Homo sapiens [7]): Active

Structure (SMILES): CN(C)CCCNc1c2ccccc2[n+](C)c2c1oc1ccc(OCC3CC[N+](C)(C)CC3)cc12
- Activity (Homo sapiens [5]): Active
- Activity [6]: Active
- Activity (Homo sapiens [7]): Active

Structure (SMILES): CCN(CC)CCCNc1c2ccccc2[n+](C)c2c1oc1ccc(OCC[N+]3(C)CCOCC3)cc12
- Activity (Homo sapiens [5]): Active
- Activity [6]: Active
- Activity (Homo sapiens [7]): Active

Structure (SMILES): CCN(CC)CCCNc1c2ccccc2[n+](C)c2c1oc1ccc(OCC(=O)NCCCN(C)C)cc12
- Activity (Homo sapiens [5]): Active
- Activity [6]: Active
- Activity (Homo sapiens [7]): Active

Structure (SMILES): CN(C)CCCNc1c2ccccc2[n+](C)c2c1oc1ccc(OCC[N+]3(C)CCCCC3)cc12
- Activity (Homo sapiens [5]): Active
- Activity [6]: Active
- Activity (Homo sapiens [7]): Active

Structure (SMILES): C[n+]1c2ccccc2c(NCCCN2CCOCC2)c2oc3ccc(OCC[N+](C)(C)C)cc3c21
- Activity (Homo sapiens [5]): Active
- Activity [6]: Active
- Activity (Homo sapiens [7]): Active

Structure (SMILES): CCN(CC)CCNC(=O)COc1ccc2oc3c(NCCN(CC)CC)c4ccccc4[n+](C)c3c2c1
- Activity (Homo sapiens [5]): Active
- Activity [6]: Active
- Activity (Homo sapiens [7]): Active

Structure (SMILES): CCN(CC)CCNc1c2ccccc2[n+](C)c2c1oc1ccc(OCC[N+]3(C)CCCCC3)cc12
- Activity (Homo sapiens [5]): Active
- Activity [6]: Active
- Activity (Homo sapiens [7]): Active

Structure (SMILES): CCN(CC)CCCNc1c2ccccc2[n+](C)c2c1oc1ccc(OCCC[N+](C)(C)C)cc12
- Activity (Homo sapiens [5]): Active
- Activity [6]: Active
- Activity (Homo sapiens [7]): Active

Structure (SMILES): CN(C)CCNc1c2ccccc2[n+](C)c2c1oc1ccc(OCC[N+]3(C)CCOCC3)cc12
- Activity (Homo sapiens [5]): Active
- Activity [6]: Active
- Activity (Homo sapiens [7]): Active

Structure (SMILES): CN(C)CCCNc1c2ccccc2[n+](C)c2c1oc1ccc(OCC[N+]3(C)CCOCC3)cc12
- Activity (Homo sapiens [5]): Active
- Activity [6]: Active
- Activity (Homo sapiens [7]): Active

Structure (SMILES): COc1ccc2cc3[n+](cc2c1NCCCN(C)C)CCc1cc2c(cc1-3)OCO2
- Activity (Homo sapiens [5]): Active
- Activity [6]: Active
- Activity (Homo sapiens [7]): Active

Structure (SMILES): COc1ccc2cc3[n+](cc2c1NCCCN1CCCCC1)CCc1cc2c(cc1-3)OCO2
- Activity (Homo sapiens [5]): Active
- Activity [6]: Active
- Activity (Homo sapiens [7]): Active

Structure (SMILES): CCN(CC)CCNc1c2ccccc2[n+](C)c2c1oc1ccc(OCCC[N+](C)(C)C)cc12
- Activity (Homo sapiens [5]): Active
- Activity [6]: Active
- Activity (Homo sapiens [7]): Active

Structure (SMILES): CCN(CC)CCNc1c2ccccc2[n+](C)c2c1[nH]c1ccccc12
- Activity (Homo sapiens [5]): Active
- Activity [6]: Active
- Activity (Homo sapiens [7]): Active

Structure (SMILES): CN1CCC(COc2ccc3oc4c(NCC(=O)NCC(=O)NC(CCCNC(=N)N)C(=O)NC(CO)C(=O)O)c5ccccc5nc4c3c2)CC1 (stereo not given)
- Activity (Homo sapiens [5]): Active
- Activity [6]: Active
- Activity (Homo sapiens [7]): Active

Structure (SMILES): CN(C)CCCNc1c2ccccc2[n+](C)c2c1oc1ccc(OCCC[N+](C)(C)C)cc12
- Activity (Homo sapiens [5]): Active
- Activity [6]: Active
- Activity (Homo sapiens [7]): Active

Structure (SMILES): C[n+]1c2ccccc2c(NCCN2CCOCC2)c2oc3ccc(OCCC[N+](C)(C)C)cc3c21
- Activity (Homo sapiens [5]): Active
- Activity [6]: Active
- Activity (Homo sapiens [7]): Active

Structure (SMILES): C[n+]1c2ccccc2c(NCCCN2CCOCC2)c2oc3ccc(OCC[N+]4(C)CCOCC4)cc3c21
- Activity (Homo sapiens [5]): Active
- Activity [6]: Active
- Activity (Homo sapiens [7]): Active

Structure (SMILES): CN(C)CCCNc1c2ccccc2[n+](C)c2c1oc1ccc(OCC[N+](C)(C)C)cc12
- Activity (Homo sapiens [5]): Active
- Activity [6]: Active
- Activity (Homo sapiens [7]): Active

Structure (SMILES): CN(C)CCCNC(=O)COc1ccc2oc3c(NCCCN(C)C)c4ccccc4[n+](C)c3c2c1
- Activity (Homo sapiens [5]): Active
- Activity [6]: Active
- Activity (Homo sapiens [7]): Active

Structure (SMILES): CN(C)CCNc1c2ccccc2[n+](C)c2c1oc1ccc(OCC3CC[N+](C)(C)CC3)cc12
- Activity (Homo sapiens [5]): Active
- Activity [6]: Active
- Activity (Homo sapiens [7]): Active

Structure (SMILES): CN(C)CCCNC1C2=Nc3ccccc3C2=Nc2ccccc21 (stereo not given)
- Tm (Homo sapiens [1]): > 81 °C
- Activity (Homo sapiens [8]): inactive

Structure (SMILES): CCN(CC)CCCNc1c2ccccc2[n+](C)c2c1oc1ccc(OCC[N+]3(C)CCCCC3)cc12
- Activity (Homo sapiens [5]): Active
- Activity [6]: Active
- Activity (Homo sapiens [7]): Active

Structure (SMILES): CN(C)CCCNc1c2ccccc2[n+](C)c2c1[nH]c1ccc(F)cc12
- Activity (Homo sapiens [5]): Active
- Activity [6]: Active
- Activity (Homo sapiens [7]): Active

Structure (SMILES): CN(C)CCNc1c2ccccc2[n+](C)c2c1oc1ccc(OCC[N+](C)(C)C)cc12
- Activity (Homo sapiens [5]): Active
- Activity [6]: Active
- Activity (Homo sapiens [7]): Active

Structure (SMILES): COc1ccc2cc3[n+](cc2c1NCCCN1CCCC1)CCc1cc2c(cc1-3)OCO2
- Activity (Homo sapiens [5]): Active
- Activity [6]: Active
- Activity (Homo sapiens [7]): Active

Structure (SMILES): C[n+]1c2ccccc2c(NCCN2CCCCC2)c2oc3ccc(OCC[N+]4(C)CCOCC4)cc3c21
- Activity (Homo sapiens [5]): Active
- Activity [6]: Active
- Activity (Homo sapiens [7]): Active

Structure (SMILES): C[n+]1c2ccccc2c(NCCCN2CCOCC2)c2oc3ccc(OCCC[N+](C)(C)C)cc3c21
- Activity (Homo sapiens [5]): Active
- Activity [6]: Active
- Activity (Homo sapiens [7]): Active

Structure (SMILES): COc1ccc2cc3[n+](cc2c1NCCCN1CCOCC1)CCc1cc2c(cc1-3)OCO2
- Activity (Homo sapiens [5]): Active
- Activity [6]: Active
- Activity (Homo sapiens [7]): Active

Structure (SMILES): C[n+]1c2ccccc2c(NCCCN2CCOCC2)c2oc3ccc(OCC4CC[N+](C)(C)CC4)cc3c21
- Activity (Homo sapiens [5]): Active
- Activity [6]: Active
- Activity (Homo sapiens [7]): Active

Structure (SMILES): C[n+]1c2ccccc2c(NCCN2CCCCC2)c2oc3ccc(OCC(=O)NCCN4CCCCC4)cc3c21
- Activity (Homo sapiens [5]): Active
- Activity [6]: Active
- Activity (Homo sapiens [7]): Active

Structure (SMILES): COc1ccc2cc3[n+](cc2c1NCCc1ccccc1)CCc1cc2c(cc1-3)OCO2
- Activity (Homo sapiens [5]): Active
- Activity [6]: Active
- Activity (Homo sapiens [7]): Active

Structure (SMILES): C[n+]1c2ccccc2c(NCCCO)c2[nH]c3ccccc3c21
- Activity (Homo sapiens [5]): Active
- Activity [6]: Active
- Activity (Homo sapiens [7]): Active

Structure (SMILES): CN1CCC(COc2ccc3oc4c(NCC(=O)NCC(=O)NC(CCCNC(=N)N)C(=O)NC(CC(=O)O)C(=O)O)c5ccccc5nc4c3c2)CC1 (stereo not given)
- Activity (Homo sapiens [5]): Active
- Activity [6]: Active
- Activity (Homo sapiens [7]): Active

Structure (SMILES): C[n+]1c2ccccc2c(NCC(=O)NCC(=O)NCC(=O)O)c2oc3ccccc3c21
- Activity (Homo sapiens [5]): Active
- Activity [6]: Active
- Activity (Homo sapiens [7]): Active

Structure (SMILES): CCN(CC)CCCNc1c2ccccc2[n+](C)c2c1oc1ccc(OCC3CC[N+](C)(C)CC3)cc12
- Activity (Homo sapiens [5]): Active
- Activity [6]: Active
- Activity (Homo sapiens [7]): Active
